# Laboratory results taken from patent US20240216375A1, “USE OF S[…] AND/OR ALPHA 1-ADRENERGIC RECEPTOR INHIBITOR IN PREPARING MEDICINE FOR TREATING DRY EYES” (Eye Institute of Shandong First Medical University …, priority 2022, published 2024).
# Key:
# Format in all cases: in vivo
# [1] = system: mice treated with scopolamine (dry eye model); assay: Tear secretion (phenol red cotton thread) in scopolamine-induced dry eye model mice; details: intraperitoneal injection 100 mg/kg once a day from 3rd day after modeling for 4 days, observed 5 and 7 days, vs normal saline
# [2] = system: mice treated with scopolamine (dry eye model); assay: Corneal staining by fluorescein sodium in scopolamine-induced dry eye model mice; details: intraperitoneal injection 100 mg/kg, 7th day of treatment
# Protocol: (§1) Female C57BL/6 mice were selected for the experiment and placed in a perforated cage with a constant fan flow and a humidity <20%. The modeled mice with dry eye were induced by subcutaneous injection of scopolamine (0.5 mg/0.2 ml, 3 times a day) for 7 consecutive days (refer to the following literature: Wu Y, Bu J, Yang Y, et al. Therapeutic effect of MK2 inhibitor on experimental murine dry eye. Invest Ophthalmol Vis Sci. 2017; 58:4898-4907), the mice not treated and fed under a normal condition were used as a control, and the experimental mice had no corneal defects and neovascularization or conjunctival damage.
# Staining by fluorescein sodium was used to observe damage of a corneal epithelial barrier function, observation was performed with a slit lamp, and photographing was performed. The result was shown in FIG. 2 (corneal staining by fluorescein sodium 7 days after modeling of mice treated with scopolamine). Compared with the mice in the control group, the mice in the scopolamine group were positive in staining by fluorescein sodium in scopolamine 7 days after modeling.
# After 7 days of the treatment, staining by sodium fluorescein was used to observe damage of a corneal epithelial barrier function. The lacrimal glands of the mice were taken for qPCR detection. […]
# [3] = system: mice treated with scopolamine (dry eye model); assay: Expression levels of inflammatory factors of the lacrimal gland by qPCR in scopolamine-induced dry eye model mice; details: intraperitoneal injection 100 mg/kg, 7th day of treatment
# Protocol: as §1
# After 7 days of modeling, the lacrimal glands and the corneas of the mice were taken to extract mRNA. Expression levels of inflammatory factors TNFα, TGFβ1, and IL-1β were detected by qPCR. The result was shown in FIG. 3 (expression levels of inflammatory factors of the lacrimal glands (left) and the corneas (right) 7 days after modeling of mice treated with scopolamine).
# After 7 days of the treatment, staining by sodium fluorescein was used to observe damage of a corneal epithelial barrier function. The lacrimal glands of the mice were taken for qPCR detection.
# On the 7th day of the treatment, staining by sodium fluorescein was used to observe damage of a corneal epithelial barrier function. The lacrimal glands of the mice were taken for qPCR detection.
# mice with diabetes = assay: Tear secretion in mice with diabetes (STZ type 1 diabetes model, diabetes-associated dry eye); details: intraperitoneal injection 100 mg/kg once a day for 4 days, observed 5 and 7 days, vs normal saline
# Protocol: A phenol red cotton thread was used to detect the tear production of mice. One end of the phenol red cotton thread was placed at an inner ⅓ of the conjunctival sac of the lower eyelid, after 20 s, the phenol red cotton thread was taken out, and the length of the cotton thread wetted with tears was measured. The result was shown in FIG. 1 (tear secretion after modeling of mice treated with scopolamine).
# Male C57BL/6 mice were selected, a type 1 diabetes model was established by intraperitoneal injection of streptozotocin (STZ) (the establishment method refers to the prior art: Lingling, Yang, Guohu, Di, Xia, & Qi, et al. Substance p promotes diabetic corneal epithelial wound healing through molecular mechanisms mediated via the neurokinin-1 receptor. Diabetes. 2014; 63: 4262-4274.), and the mice with blood glucose value greater than 300 mg/dL were screened for experiments after 1 month. The mice not treated and fed under a normal condition were used as a control, and the experimental mice had no corneal defects and neovascularization or conjunctival damage. The result was shown in FIG. 11 (tear secretion and ocular surface inflammation after modeling of mice with diabetes, tear secretion (left) and ocular surface inflammation (right)). […]
structure (smiles),measurement,setting,value
NCCc1cc(O)c(O)cc1O [6-hydroxydopamine],tear secretion,[1],significantly increase the tear secretion
same,staining of ocular surface by fluorescein sodium,[2],reduce staining of an ocular surface by fluorescein sodium
same,expression levels of inflammatory factors TNFα and TGFβ1 of the lacrimal gland,[3],decrease expression levels of inflammatory factors TNFα and TGFβ1
same,tear secretion,mice with diabetes,significantly increase the tear secretion
